Source: patent publication US20080139612A1, “Chemical Compound” (ASTRAZENECA AB, priority 2006, published 2008)

Key:
[1] = molecular target: T1, CCR5 (Homo sapiens, UniProt P51681); assay: Displacement of radio-labelled CCR5 antagonist from Allo-T cell membranes (inhibition of MIP-1β binding); details: membranes of human allo-reactive T cells; 2 nM [3H] CCR5 antagonist; 2 hours at room temperature; read-out: IC50, concentration which displaced 50% of bound radio-labelled CCR5 antagonist
T1 construct: After 21 to 34 days culture, the membranes were prepared from the cells; endogenous in cells; host or cells: Allo-T cells (allo-reactive T cell line from human PBMCs), membrane preparation
T1 sequence (P51681 whole entry): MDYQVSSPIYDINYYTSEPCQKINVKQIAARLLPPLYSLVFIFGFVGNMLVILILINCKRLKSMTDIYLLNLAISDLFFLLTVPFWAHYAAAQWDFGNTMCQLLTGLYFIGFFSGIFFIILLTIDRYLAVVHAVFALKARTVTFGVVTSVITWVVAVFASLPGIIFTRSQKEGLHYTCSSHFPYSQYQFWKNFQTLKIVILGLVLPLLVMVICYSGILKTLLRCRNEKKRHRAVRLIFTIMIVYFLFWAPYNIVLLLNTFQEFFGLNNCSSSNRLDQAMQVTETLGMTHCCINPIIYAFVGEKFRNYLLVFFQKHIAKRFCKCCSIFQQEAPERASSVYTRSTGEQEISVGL
Experimental: The ability of the compound of the present invention to inhibit the binding of MIP-1β (CCL-4) was measured:
An allo-reactive T cell line was generated by exposure of human peripheral blood mononuclear cells (PBMCs) to L-DR4/B7 fibroblasts (immobilised with glutaraldehyde fixation and irradiation) and subsequent expansion with anti-CD3 and IL-2 for 14 days. The resultant Allo-T cells were frozen. When required, the cells were grown and re-challenged with irradiated HLA-DR4+ve PBMCs and expanded with anti-CD3 and IL-2. After 21 to 34 days culture, the membranes were prepared from the cells. These membranes were incubated in 96-well plates with 2 nM of the radio-labelled CCR5 antagonist [^3H]1-{(3R)-3-(3,5-difluorophenyl)-3-[4-(methylsulfonyl)phenyl]propyl}-4-(2-{[4-(methylsulfonyl)phenyl]sulfonyl}ethyl)piperidine and various concentrations of the compound of the invention for 2 hours at room temperature. The plates were then harvested onto GF/B filter plates (which had been pre-soaked soaked in 0.3% PEI containing 0.2% BSA for 10 min at 4° C.) using a Packard Unifilter harvester using 10 wash steps. The amount of [^3H]1-{(3R)-3-(3,5-difluorophenyl)-3-[4-(methylsulfonyl)phenyl]propyl}-4-(2-{[4-(methylsulfonyl)phenyl]sulfonyl}ethyl)piperidine retained on the filter plates was determined by scintillation counting. […]

[2] = test system: T-cells, chemotaxis in response to MIP-1β (CCL-4); assay: Inhibition of chemotaxis of T-cells in response to MIP-1β (CCL-4); assay type: cell-based; details: human allo-reactive T cell line; 1 nM MIP-1β; 1 hour at 37° C.; read-out: IC50, concentration which inhibited 50% of the chemotactic response
Experimental: The ability of the compound of the present invention to inhibit the chemotaxis of T-cells in response to MIP-1β (CCL-4) was measured:
An allo-reactive T cell line was generated by exposure of human peripheral blood mononuclear cells (PBMCs) to L-DR4/B7 fibroblasts (immobilised with glutaraldehyde fixation and irradiation) and subsequent expansion with IL-2 and anti-CD3. When required, the cells were grown and re-challenged with irradiated HLA-DR4+ve PBMCs and expanded with anti-CD3 and IL-2. The cells were used between day 21 and 34. 1 nM of MIP-1β plus varying concentrations of the CCR5 antagonist [^3H]1-{(3R)-3-(3,5-difluorophenyl)-3-[4-(methylsulfonyl)phenyl]propyl}-4-(2-{[4-(methylsulfonyl)phenyl]sulfonyl}ethyl)piperidine were placed in assay buffer in the bottom of a 96-well Neuroprobe Chemo TX chemotaxis plate and cells that had been loaded with a fluorescent dye and pre-incubated with varying concentration of the CCR5 antagonist were pipetted onto the surface of a 5 micron pore size membrane according to the manufacturers specifications. After 1 hour of incubation with the compound of the invention at 37° C., the unmigrated cells were washed off the surface of the plate with PBS and the […] by reading on a 96-well fluorescent plate reader. […]

IC50 [1] [nM] | IC50 [2] [nM] | SMILES
3.4 | 2.1 | Cc1nnc(C(C)(F)F)n1C1CCN([C@H](C)C[C@@H](c2cc(F)cc(F)c2)C2CCN(S(C)(=O)=O)CC2)CC1 (single isomer, unassigned)
39 | 68 | Cc1nnc(C(F)(F)F)n1C1CCN(CC[C@@H](c2cc(F)cc(F)c2)C2CCN(S(C)(=O)=O)CC2)CC1 [Comparator Compound A, 1-{(3R)-3-(3,5-difluorophenyl)-3-[1-(methylsulfonyl)piperidin-4-yl]propyl}-4-[3-methyl-5-(trifluoromethyl)-4H-1,2,4-triazol-4-yl]piperidine]
